Data published in the NIST ThermoML archive (doi:10.1021/je700535q).

Experiment: xn = mol fraction of the nth substance listed
Settings: 101 kPa, Liquid, x1 = 0

| binary diffusion coefficient (333.2 K) | binary diffusion coefficient (353.2 K) | binary diffusion coefficient (373.2 K) | binary diffusion coefficient (433.2 K) | binary diffusion coefficient (443.2 K) | binary diffusion coefficient (453.2 K) | binary diffusion coefficient (313.2 K) | binary diffusion coefficient (418.2 K) | binary diffusion coefficient (473.2 K) | Structure (SMILES) | binary diffusion coefficient (393.2 K) | binary diffusion coefficient (413.2 K) | binary diffusion coefficient (423.2 K) | binary diffusion coefficient (463.2 K) |
| --- | --- | --- | --- | --- | --- | --- | --- | --- | --- | --- | --- | --- | --- |
| 9.4e-10 m2/s | 1.36e-09 m2/s | 1.38e-09 m2/s | 3.43e-09 m2/s | 4.57e-09 m2/s | 5.56e-09 m2/s | – | – | – | c1ccc2cc3ccccc3cc2c1 [anthracene] + CCCCCCCCCCCCCC | 2.03e-09 m2/s | – | – | – |
| 1.42e-09 m2/s | 1.86e-09 m2/s | 2.28e-09 m2/s | 4.64e-09 m2/s | – | 5.56e-09 m2/s | 1.03e-09 m2/s | 3.69e-09 m2/s | – | c1ccc2ccccc2c1 [naphthalene] + CCCCCCCCCCCCCC | – | – | – | – |
| 1.27e-09 m2/s | 1.55e-09 m2/s | 2e-09 m2/s | – | – | 3.96e-09 m2/s | – | – | 5.08e-09 m2/s | c1ccc2nc3ccccc3cc2c1 [acridine] + CCCCCCCCCCCCCC | 2.4e-09 m2/s | 2.93e-09 m2/s | 3.74e-09 m2/s | – |

Continued, compound first:

| Structure (SMILES) | binary diffusion coefficient (333.2 K) | binary diffusion coefficient (353.2 K) | binary diffusion coefficient (373.2 K) | binary diffusion coefficient (433.2 K) | binary diffusion coefficient (443.2 K) | binary diffusion coefficient (453.2 K) | binary diffusion coefficient (313.2 K) | binary diffusion coefficient (418.2 K) | binary diffusion coefficient (473.2 K) | binary diffusion coefficient (393.2 K) | binary diffusion coefficient (413.2 K) | binary diffusion coefficient (423.2 K) | binary diffusion coefficient (463.2 K) |
| --- | --- | --- | --- | --- | --- | --- | --- | --- | --- | --- | --- | --- | --- |
| c1ccc2c(c1)sc1ccccc12 [dibenzothiophene] + CCCCCCCCCCCCCC | 1.06e-09 m2/s | 1.41e-09 m2/s | – | 3.41e-09 m2/s | – | 3.96e-09 m2/s | – | – | – | 2.13e-09 m2/s | 2.61e-09 m2/s | 3.14e-09 m2/s | 5.01e-09 m2/s |
| c1ccc2sccc2c1 [benzo[b]thiophene] + CCCCCCCCCCCCCC | 1.19e-09 m2/s | 1.65e-09 m2/s | 2.1e-09 m2/s | – | – | 4.77e-09 m2/s | – | – | – | 2.51e-09 m2/s | 3.19e-09 m2/s | 3.83e-09 m2/s | – |
